Laboratory results: BindingDB's records for doi:10.1021/jm020911e (Universit&#224, 2002)

Biological target: Adenosine receptor A3 (Bos taurus)
Assay: Displacement of [125I]AB-MECA from Adenosine A3 receptor in bovine cortical membranes in the presence of 20 nM DPCPX.

## CC(=O)Nc1nc(-c2ccccc2)nc2nc(C)cn12 [N-(7-Methyl-2-phenyl-imidazo[1,2-a][1,3,5]triazin-4-yl)-acetamide]
  Ki: 231 nM

## CC(=O)Nc1nc(-c2ccccc2)nc2nc(-c3ccccc3)cn12 [N-(2,7-Diphenyl-imidazo[1,2-a][1,3,5]triazin-4-yl)-acetamide]
  Ki: 40 nM

## O=C(Nc1nc(-c2ccccc2)nc2nc(-c3ccccc3)cn12)C1CCCC1 [Cyclopentanecarboxylic acid (2,7-diphenyl-imidazo[1,2-a][1,3,5]triazin-4-yl)-amide]
  Ki: 1240 nM

## CC(=O)CNc1nc(-c2ccccc2)nc2nc(C)cn12 [1-(7-Methyl-2-phenyl-imidazo[1,2-a][1,3,5]triazin-4-ylamino)-propan-2-one]
  Ki: > 10000 nM

## CCC(=O)CNc1nc(-c2ccccc2)nc2nc(C)cn12 [1-(7-Methyl-2-phenyl-imidazo[1,2-a][1,3,5]triazin-4-ylamino)-butan-2-one]
  Ki: > 10000 nM

## CC(C)c1cn2c(NC(=O)C3CCCC3)nc(-c3ccccc3)nc2n1 [Cyclopentanecarboxylic acid (7-isopropyl-2-phenyl-imidazo[1,2-a][1,3,5]triazin-4-yl)-amide]
  Ki: 17.4 nM

## Cc1cn2c(NC3CCCC3)nc(-c3ccccc3)nc2n1 [Cyclopentyl-(7-methyl-2-phenyl-imidazo[1,2-a][1,3,5]triazin-4-yl)-amine]
  Ki: 2250 nM
